Laboratory results as given in patent US12312354B2, “Selective BTK irreversible inhibitors” (SAN DIEGO STATE UNIVERSITY FOUNDATION, priority 2019, dated 2025).

Key:
BTK = BTK (Homo sapiens, UniProt Q06187); test: In vitro kinase assay (biochemical), BTK; conditions: for IC50: in vitro kinase assay; for selectivity for BTK over BLK (BTK/BLK selectivity): ratio of BLK and BTK IC50
BLK = BLK (Homo sapiens, UniProt P51451); test: In vitro kinase assay, BLK; type: biochemical
ITK = target: T1, ITK (Homo sapiens, UniProt Q08881); test: In vitro kinase assay, ITK; type: biochemical
T1 sequence (Q08881 1-620): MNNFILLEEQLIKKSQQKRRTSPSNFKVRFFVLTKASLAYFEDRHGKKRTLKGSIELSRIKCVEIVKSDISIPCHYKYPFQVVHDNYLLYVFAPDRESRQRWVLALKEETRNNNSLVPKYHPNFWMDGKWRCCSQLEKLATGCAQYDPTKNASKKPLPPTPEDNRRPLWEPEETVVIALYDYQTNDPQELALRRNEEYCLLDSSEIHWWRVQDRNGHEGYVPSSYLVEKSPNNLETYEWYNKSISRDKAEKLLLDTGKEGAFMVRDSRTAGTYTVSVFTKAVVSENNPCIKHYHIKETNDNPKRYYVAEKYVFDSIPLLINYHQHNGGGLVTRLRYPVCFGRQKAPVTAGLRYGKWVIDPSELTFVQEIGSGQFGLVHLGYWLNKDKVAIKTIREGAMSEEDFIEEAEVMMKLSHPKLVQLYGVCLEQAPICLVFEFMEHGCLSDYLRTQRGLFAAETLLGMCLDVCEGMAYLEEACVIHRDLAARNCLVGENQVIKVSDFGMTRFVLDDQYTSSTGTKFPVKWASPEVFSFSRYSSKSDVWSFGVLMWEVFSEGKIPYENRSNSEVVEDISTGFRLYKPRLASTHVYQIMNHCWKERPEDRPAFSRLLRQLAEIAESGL

HER2 = HER2 (Homo sapiens, UniProt P04626); test: In vitro kinase assay, HER2; type: biochemical
Sequence of HER2 (P04626 23-1255): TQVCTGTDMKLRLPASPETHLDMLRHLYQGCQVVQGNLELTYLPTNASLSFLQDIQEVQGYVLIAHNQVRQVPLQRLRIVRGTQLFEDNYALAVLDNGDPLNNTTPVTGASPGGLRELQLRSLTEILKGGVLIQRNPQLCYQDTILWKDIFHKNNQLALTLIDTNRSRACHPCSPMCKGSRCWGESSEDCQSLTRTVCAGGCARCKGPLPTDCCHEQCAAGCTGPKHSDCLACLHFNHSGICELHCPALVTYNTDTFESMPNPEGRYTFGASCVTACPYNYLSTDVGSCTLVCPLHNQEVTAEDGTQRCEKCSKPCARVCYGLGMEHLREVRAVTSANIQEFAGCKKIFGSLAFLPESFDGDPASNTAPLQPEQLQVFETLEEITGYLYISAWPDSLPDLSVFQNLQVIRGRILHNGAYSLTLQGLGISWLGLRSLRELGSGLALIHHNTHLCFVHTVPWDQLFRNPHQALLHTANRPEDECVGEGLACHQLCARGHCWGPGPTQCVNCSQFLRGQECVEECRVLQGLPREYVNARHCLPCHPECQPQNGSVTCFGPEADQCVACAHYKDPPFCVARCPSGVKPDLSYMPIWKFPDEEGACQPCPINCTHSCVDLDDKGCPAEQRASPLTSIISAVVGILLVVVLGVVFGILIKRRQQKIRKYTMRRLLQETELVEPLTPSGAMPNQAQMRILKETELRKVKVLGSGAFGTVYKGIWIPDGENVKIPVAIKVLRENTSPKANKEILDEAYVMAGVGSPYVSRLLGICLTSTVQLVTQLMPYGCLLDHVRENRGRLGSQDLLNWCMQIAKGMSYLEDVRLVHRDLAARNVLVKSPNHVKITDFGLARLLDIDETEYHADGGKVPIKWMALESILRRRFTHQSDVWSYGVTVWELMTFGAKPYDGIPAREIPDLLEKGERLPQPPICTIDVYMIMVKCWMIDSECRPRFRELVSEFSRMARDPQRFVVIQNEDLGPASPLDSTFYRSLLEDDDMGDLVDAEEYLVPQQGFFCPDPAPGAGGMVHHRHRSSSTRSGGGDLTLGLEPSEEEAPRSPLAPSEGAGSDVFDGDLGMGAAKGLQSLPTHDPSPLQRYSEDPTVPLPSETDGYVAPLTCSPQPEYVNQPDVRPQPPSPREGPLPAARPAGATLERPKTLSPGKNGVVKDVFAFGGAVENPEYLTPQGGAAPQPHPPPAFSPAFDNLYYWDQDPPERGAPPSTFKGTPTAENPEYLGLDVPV

Sequence of BTK (Q06187 whole entry): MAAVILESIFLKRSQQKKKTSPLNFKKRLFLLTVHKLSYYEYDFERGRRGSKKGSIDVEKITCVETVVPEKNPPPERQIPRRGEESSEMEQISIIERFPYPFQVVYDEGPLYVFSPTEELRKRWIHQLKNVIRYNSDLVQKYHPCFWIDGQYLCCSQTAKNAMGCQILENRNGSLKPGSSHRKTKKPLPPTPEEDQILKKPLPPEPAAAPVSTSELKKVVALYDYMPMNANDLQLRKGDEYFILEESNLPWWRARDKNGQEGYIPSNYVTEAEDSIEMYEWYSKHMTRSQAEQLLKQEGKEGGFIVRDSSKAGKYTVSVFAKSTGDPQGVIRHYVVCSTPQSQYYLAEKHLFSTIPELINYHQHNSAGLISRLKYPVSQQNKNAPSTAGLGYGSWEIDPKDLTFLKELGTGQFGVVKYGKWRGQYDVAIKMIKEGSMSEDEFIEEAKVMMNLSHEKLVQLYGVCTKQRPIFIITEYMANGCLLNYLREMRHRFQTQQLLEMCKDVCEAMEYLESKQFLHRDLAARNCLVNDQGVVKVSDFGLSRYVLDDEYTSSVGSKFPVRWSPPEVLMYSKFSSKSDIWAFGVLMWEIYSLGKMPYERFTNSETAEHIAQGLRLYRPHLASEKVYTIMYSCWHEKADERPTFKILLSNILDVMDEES
Sequence of BLK (P51451 whole entry): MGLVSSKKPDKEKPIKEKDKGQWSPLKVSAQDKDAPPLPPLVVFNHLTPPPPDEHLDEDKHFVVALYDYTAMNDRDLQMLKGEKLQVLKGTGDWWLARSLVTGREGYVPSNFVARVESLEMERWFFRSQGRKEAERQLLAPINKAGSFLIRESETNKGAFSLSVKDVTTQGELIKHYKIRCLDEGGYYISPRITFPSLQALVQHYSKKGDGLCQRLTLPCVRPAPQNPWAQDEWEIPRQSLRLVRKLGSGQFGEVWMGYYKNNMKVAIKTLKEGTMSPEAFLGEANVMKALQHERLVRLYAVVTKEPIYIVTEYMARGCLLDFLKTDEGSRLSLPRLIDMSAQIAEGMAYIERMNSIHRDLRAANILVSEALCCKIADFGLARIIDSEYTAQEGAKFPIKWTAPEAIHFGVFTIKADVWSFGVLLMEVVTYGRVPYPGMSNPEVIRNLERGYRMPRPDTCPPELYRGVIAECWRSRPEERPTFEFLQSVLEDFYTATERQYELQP

Row | IC50 (BTK) | selectivity for BTK over BLK (BTK/BLK selectivity) (BTK) | IC50 (BLK) | IC50 (ITK) | IC50 (HER2) | improvement in affinity/potency towards BTK over the diastereomer (Ra, R) / (Ra)-3.1 (BTK; fold, BTK IC50 425 nM vs 3307 nM) | SMILES
1 | 1.12 nM | 30 × | 32.4 nM |  |  |  | C=CC(=O)N1CCCC(n2nc(-c3ccc(C(=O)Nc4ccccn4)cc3C)c3c(N)ncnc32)C1 (stereo not shown) [3.11]
2 | 2.7 nM |  | 9.1 nM |  |  |  | C=CC(=O)N1CCC[C@@H](n2cc(-c3ccc(Oc4ccccc4)cc3)c3c(N)ncnc32)C1 [3.4]
3 | 24.2 nM |  | 128 nM |  |  |  | C=CC(=O)N1CCCC(n2c(C)c(-c3ccc(C(=O)Nc4ccccn4)cc3C)c3c(N)ncnc32)C1 (single isomer, unassigned) [(Ra)-3.10]
4 | 6.4 nM | about 2 × | 14 nM |  |  |  | C=CC(=O)N1CCC[C@@H](n2cc(-c3ccc(Oc4ccccc4)cc3C)c3c(N)ncnc32)C1 [3.6]
5 | 21.7 nM |  | 90.4 nM |  |  |  | C=CC(=O)N1CCCC(n2c(C)c(-c3ccc(C(=O)Nc4ccccn4)cc3C)c3c(N)ncnc32)C1 (single isomer, unassigned) [(Sa)-3.10]
6 | 17.3 nM |  | 55.9 nM |  |  |  | C=CC(=O)N1CCC[C@H](n2cc(-c3ccc(Oc4ccccc4)cc3)c3c(N)ncnc32)C1 [3.5]
7 | > 10000 nM |  | 9960 nM | > 10000 nM | > 10000 nM |  | C=CC(=O)N1CCC[C@@H](n2c(C)c(-c3ccc(Oc4ccccc4)cc3C)c3c(N)ncnc32)C1 (single isomer, unassigned) [(Sa)-3.1]
8 | 5.5 nM |  | 8.4 nM |  |  |  | C=CC(=O)N1CCC[C@@H](n2nc(-c3ccc(Oc4ccccc4)cc3C)c3c(N)ncnc32)C1 [3.7]
9 | 3920 nM |  | 1730 nM | > 10000 nM | > 10000 nM |  | C=CC(=O)N1CCC[C@H](n2c(C)c(-c3ccc(Oc4ccccc4)cc3C)c3c(N)ncnc32)C1 (single isomer, unassigned) [(Sa)-3.2]
10 | 3310 nM |  | 1810 nM | > 10000 nM | > 10000 nM |  | C=CC(=O)N1CCC[C@@H](n2c(C)c(-c3ccc(Oc4ccccc4)cc3C)c3c(N)ncnc32)C1 (single isomer, unassigned) [(Ra)-3.1]
11 | 425 nM |  | 187 nM | > 10000 nM | > 10000 nM | 10 × | C=CC(=O)N1CCC[C@H](n2c(C)c(-c3ccc(Oc4ccccc4)cc3C)c3c(N)ncnc32)C1 (single isomer, unassigned) [(Ra)-3.2]
12 | 0.47 nM |  | 0.29 nM |  | 451 nM |  | C=CC(=O)N1CCC[C@@H](n2cc(-c3ccc(Oc4ccccc4)cc3)c3c(N)ncnc32)C1 (racemic) [Rac]
13 | 37.4 nM |  | 174 nM |  |  |  | C=CC(=O)N1CCCC(n2nc(-c3c(C)cc(Oc4ccccc4)cc3C)c3c(N)ncnc32)C1 (stereo not shown) [3.8]
14 | 444 nM |  | 451 nM |  |  |  | C=CC(=O)N1CCC[C@H](n2c(C)c(-c3ccc(Oc4ccccc4)cc3)c3c(N)ncnc32)C1 [3.3]
